Data published in the supplement of paper PMC10307832.

Key:
Experiment in all cases: relative viability (nuclei count vs DMSO), 5 days (fraction); higher = more cells survive
[1] = compound: C1/C(=C\C2=CC=CS2)/C(=O)/C(=C/C3=CC=CS3)/C1 + N=C(N)NC(=N)NCCc1ccccc1 [Phenformin] (partner 250 µM)
How it was run: (§1)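 For relative viability, nuclei counts in treated wells were divided by those in vehicle wells. Lung cancer cell lines had been pin-tool dosed in 1536-well plates the day after seeding and cultured for 5 days, then fixed and stained in one step (final 0.05% Triton X-100, 1% formaldehyde, 1 ug/ml Hoechst) and imaged at 4×. Doses were one drug alone or a fixed anchor-drug dose plus five library-drug doses (not always all listed) in √10 steps, and values are duplicate-plate medians.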

[2] = compound: C1=CC(=CC=C1C2=CC(=C(S2)NC(=O)N)C(=O)N)F [TPCA-1] + C[C@@H](Oc1cc(-c2cnn(C3CCNCC3)c2)cnc1N)c1c(Cl)ccc(F)c1Cl [Crizotinib] (partner 1 µM)
How it was run: as §1

[3] = compound: C[C@]12O[C@H](C[C@]1(O)CO)n1c3ccccc3c3c4c(c5c6ccccc6n2c5c31)CNC4=O [Lestaurtinib] + CS(=O)(=O)CCNCc1ccc(-c2ccc3ncnc(Nc4ccc(OCc5cccc(F)c5)c(Cl)c4)c3c2)o1 [Lapatinib] (partner 2 µM)
How it was run: as §1

[4] = compound: C1=CC(=CC=C1C2=CC(=C(S2)NC(=O)N)C(=O)N)F [TPCA-1] + CCNC(=O)c1noc(-c2cc(C(C)C)c(O)cc2O)c1-c1ccc(CN2CCOCC2)cc1 [Luminespib] (partner 0.01 µM)
How it was run: as §1

| Cell Line | relative viability ([1]; first compound 0.2 µM) | relative viability ([1]; first compound 0.6325 µM) | relative viability ([1]; first compound 2 µM) | relative viability ([1]; first compound 6.325 µM) | relative viability ([1]; first compound 20 µM) | relative viability ([2]; first compound 0.04 µM) | relative viability ([2]; first compound 0.1265 µM) | relative viability ([2]; first compound 0.4 µM) | relative viability ([2]; first compound 1.265 µM) | relative viability ([2]; first compound 4 µM) | relative viability ([3]; first compound 0.005 µM) | relative viability ([3]; first compound 0.01581 µM) | relative viability ([3]; first compound 0.05 µM) | relative viability ([3]; first compound 0.1581 µM) | relative viability ([3]; first compound 0.5 µM) | relative viability ([4]; first compound 0.04 µM) | relative viability ([4]; first compound 0.1265 µM) | relative viability ([4]; first compound 0.4 µM) | relative viability ([4]; first compound 1.265 µM) | relative viability ([4]; first compound 4 µM) |
| --- | --- | --- | --- | --- | --- | --- | --- | --- | --- | --- | --- | --- | --- | --- | --- | --- | --- | --- | --- | --- |
| LXF-289 | 0.553 | 0.536 | 0.554 | 0.459 | 0.513 | 0.84 | 0.785 | 0.794 | 0.806 | 0.537 | 0.867 | 0.917 | 0.713 | 0.769 | 0.375 | 0.787 | 0.649 | 0.748 | 0.703 | 0.596 |
| NCI-H23 | 0.775 | 0.863 | 0.828 | 0.78 | 0.699 | 0.582 | 0.503 | 0.515 | 0.441 | 0.341 | 1.21 | 1.19 | 0.776 | 0.888 | 0.212 | 0.199 | 0.208 | 0.219 | 0.196 | 0.193 |
| NCI-H322M | 0.85 | 0.814 | 0.923 | 0.628 | 0.768 | 0.807 | 0.924 | 0.873 | 0.841 | 0.728 | 0.555 | 0.567 | 0.416 | 0.424 | 0.525 | 1 | 0.812 | 0.984 | 1.01 | 0.366 |
| NCI-H358 | 0.358 | 0.303 | 0.428 | – | 0.281 | 0.759 | 0.559 | 0.541 | 0.39 | 0.264 | 0.466 | 0.423 | 0.374 | 0.268 | 0.279 | 0.286 | 0.366 | 0.279 | 0.266 | 0.125 |
| NCI-H460 | 0.543 | 0.568 | 0.519 | 0.344 | 0.522 | 0.911 | 0.919 | 0.889 | 0.883 | 0.298 | 0.869 | 1.33 | 0.23 | 0.415 | 0.0473 | 0.0339 | 0.0348 | 0.0261 | 0.0343 | 0.0263 |
| NCI-H520 | 0.744 | 0.605 | 0.766 | 0.535 | 0.443 | 0.882 | 0.737 | 0.795 | 0.566 | 0.544 | 0.833 | 1 | 0.59 | 0.48 | 0.252 | 0.197 | 0.215 | 0.203 | 0.246 | 0.213 |
| NCI-H596 | 0.711 | 0.799 | 0.846 | 0.78 | 0.857 | 1.01 | 1.1 | 0.522 | 0.972 | 1.01 | 1.22 | 1.03 | 0.973 | 1.26 | 0.843 | 0.988 | 1.08 | 0.897 | 1.11 | 1.08 |
| NCI-H647 | 0.55 | 0.505 | 0.579 | 0.474 | 0.485 | 1.24 | 1.08 | 1.13 | 0.882 | 0.215 | 0.837 | 0.735 | 0.217 | 0.146 | 0.114 | 0.149 | 0.192 | 0.157 | 0.102 | 0.134 |
| NCI-H650 | 0.43 | 0.442 | 0.465 | 0.45 | 0.449 | 0.707 | 0.522 | 0.688 | 0.373 | 0.382 | 0.732 | 1.22 | 0.455 | 0.421 | 0.26 | 0.858 | 0.788 | 0.849 | 0.499 | 0.328 |
| NCI-H661 | 0.288 | 0.259 | 0.275 | 0.253 | 0.307 | 0.968 | 0.889 | 1.05 | 0.988 | 0.825 | 0.466 | 0.608 | 0.444 | 0.444 | 0.323 | 0.973 | 0.934 | 0.962 | 0.846 | 0.806 |
| NCI-H727 | 0.64 | 0.642 | 0.671 | 0.525 | 0.494 | 0.82 | 0.677 | 1.05 | 0.64 | 0.706 | 1.21 | 0.986 | 0.78 | 0.813 | 0.263 | 0.531 | 0.453 | 0.439 | 0.487 | 0.432 |
| NCI-H838 | 0.689 | 0.541 | 0.687 | 0.65 | 0.519 | 0.837 | 0.752 | 0.806 | 0.698 | 0.471 | 1.04 | 0.998 | 0.664 | 0.451 | 0.132 | 0.349 | 0.398 | 0.235 | 0.268 | 0.223 |
| NCI-H1355 | 0.512 | 0.492 | 0.465 | 0.397 | 0.434 | 1.1 | 1.03 | 1.11 | 0.977 | 0.712 | 1.06 | 1.03 | 0.942 | 0.732 | 0.658 | 0.788 | 0.747 | 0.841 | 0.715 | 0.465 |
| NCI-H1437 | 0.294 | 0.281 | 0.402 | 0.26 | 0.318 | 0.941 | 0.892 | 0.892 | 0.872 | 0.834 | 0.775 | 0.866 | 0.529 | 0.414 | 0.114 | 1.04 | 1.14 | 1.03 | 1.12 | 1.2 |
| NCI-H1563 | 0.672 | 0.66 | 0.655 | 0.614 | 0.593 | 0.945 | 0.954 | 0.89 | 0.953 | 0.811 | 1.1 | 0.947 | 1.06 | 1.05 | 0.776 | 0.522 | 0.601 | 0.521 | 0.532 | 0.451 |
| NCI-H1650 | 0.495 | 0.434 | 0.426 | 0.391 | 0.467 | 1.18 | 0.92 | 1.04 | 1.09 | 0.891 | 0.987 | 0.95 | 0.817 | 0.512 | 0.157 | 0.225 | – | 0.188 | 0.185 | 0.197 |
